Reference: patent US20240100076A1, “METHODS AND COMPOSITIONS FOR TREATING NEURODEGENERATIVE DISEASES” (Augusta University Research Institute, Inc., priority 2021, published 2024)
Entries after “also recorded” stand apart in the source; their conditions may differ.

Legend:
5XFAD mice [1] = test: Whole-body dual-energy X-ray absorptiometry (DXA) in 5XFAD mice; format: in vivo, mouse; conditions: intranasal, 8 weeks (combination 4 + 4 weeks)
Method: Bone loss often accelerates with neurodegenerative diseases and during aging. Protecting from bone loss would be complementary to treatments for neurodegenerative diseases. Body composition analyses were measured by dual-energy X-ray absorptiometry (DXA; Kubtec Digimus, KUB Technologies, Stratford, CT, USA). Bone area (cm2), Bone mineral content (BMC, grams) and bone mineral density (BMD, g/cm2) were calculated for the whole body (FIGS. 11A-11C) using the manufacturer's analysis software (Kubtec Digimus). […] Increasing bone density in patients with neurodegenerative diseases, would decrease risk of fracture and increase the quality of life.

5XFAD mice [2] = test: Novel object recognition test in 5XFAD mice; format: in vivo, mouse; conditions: intranasal 5 mg/kg/day for 8 weeks (combination: GD3 4 weeks, GM1 4 weeks), 2-month-old 5XFAD mice, n=3
Method: FIGS. 9A and 9B illustrate the memory function of intranasal ganglioside treatments. FIG. 9A is a schematic diagram showing the experimental procedure of novel object recognition test. […] Each mouse was placed in an arena, with two identical objects placed at each end of the arena. After 5 min of investigation, mice were returned to their home cage. 24 hours later, one test object was replaced with a novel object, and animals were allowed 5 min for investigation. The time spent exploring each object was recorded. Percentages of exploration time of novel object (memory) are shown in the columns (n=3).
Gangliosides (5 mg/kg/day), GD3, GM1, or GD3-GM1 (GD3 for 4 weeks and GM1 for 4 week) were administered into 2-month-old 5XFAD mice for 8 weeks. To assess the effect of intranasal ganglioside treatment on cognitive function, mice were tested using the novel object recognition test (FIG. 9A). […] These findings indicate that intranasal ganglioside has an important role to enhance hippocampal-dependent learning and memory.

[3] = tested on: hippocampal NSC (Sox2 positive cell); test: SOX2 positive NSCs in hippocampus of PD mouse brain; format: in vivo; conditions: intranasal 5 mg/kg/day for 28 days (combination: GD3 2 weeks, then GM1 2 weeks)
Method: (§1) The acquisition, care, and experimental treatment of animals used in this study were in compliance with the NIH guidelines as published in the Guide for the Care and Use of Laboratory Animals. Gangliosides (GD3 or GM1; 5 mg/kg/day) were infused intranasally (Hanson, et al., J. Vis. Exp. (74) (2013) doi.org/10.3791/4440.) with a small pipette (each […] into the right and left nares twice, or […] per day) into 8-month-old WT (C57B6/J), A53T PD, and GM2S-KO mice daily for 7-28 days. GD3 and GM1 used in this study were isolated from either bovine buttermilk or brains by established procedures (Ariga, et al., J. Biol. Chem. 269, 2667-2675 (1994), Ledeen and Yu, Methods Enzymol. 83, 139-191 (1982), Ren, et al., J. Biol. Chem. 267, 12632-12638 (1992)). Gangliosides, being amphipathic, were easily dissolved in saline. The placebo group received saline infusions. At first, to provide direct evidence for ganglioside administration into brain, mice totally deficient in GM1 (8-month-old GM2S-KO mice) were intranasally administered GM1 (0.5 or 5 mg/kg/day) for 7 days. Brain-delivered GM1 was analyzed by immunohistochemistry and TLC. After confirmation that ganglioside reached the brain of GM2S-KO mice by the intranasal route, 8-month-old A53T PD mice were utilized for ganglioside treatments (28 days). […]

NSC pools in DG and SVZ = conditions: icv by micro-osmotic pump, 5 mg/kg/day for 7 days, GD3S-KO mouse; cited from earlier work
5XFAD mouse brain = conditions: icv 5 mg/kg/day for 7 days; cited from earlier work
VDAC1 = VDAC1 expression in PD mouse brain; format: in vivo; conditions: intranasal 5 mg/kg/day for 28 days
Method: as §1

5XFAD mice [4] = test: Buried pellet test (olfactory function) in 5XFAD mice; format: in vivo, mouse; conditions: intranasal 5 mg/kg/day for 8 weeks (combination: GD3 4 weeks, GM1 4 weeks), n=3
Method: To detect olfaction deficiency, the buried pellet test was assessed (FIG. 10A). Bedding tips were set to 3 cm height. The time until mice uncover the food pellet was measured. […] It is believed that GD3 maintains stemness and inhibits further neuronal differentiation such as olfactory neurons. […] The buried pellet test, which relies on the animal's natural tendency to use olfactory cues for foraging, is used to confirm ability to smell (FIG. 10A). The time until mice uncover the food pellet in bedding tips was measured. […] Thus, GD3 has important role in olfactory function (FIG. 12).

aSyn = molecular target: T1, aSyn (Homo sapiens, UniProt P37840, A53T); test: aSyn levels in A53T PD mouse brain after intranasal gangliosides; format: in vivo; conditions: intranasal 5 mg/kg/day for 28 days, 8-month-old A53T PD mice
T1 construct: tissue The Jackson Laboratory 006823; host or cells: brain / substantia nigra of A53T PD transgenic mice
Method: as §1

TH = TH expression in substantia nigra of GM2S-KO mouse; format: in vivo; conditions: intranasal 5 mg/kg/day for 28 days, 8 months old GM2S-KO mouse
Method: as §1

TH gene promoter = test: ChIP assay on TH gene promoter in Neuro 2a cells; format: cell-based, mouse; conditions: 5 mM ganglioside, 24 h
Method: (§2) Mouse Neuro-2a neuroblastoma cells (ATCC, Manassas, VA, USA, CCL-131) were maintained in Dulbecco's modified Eagle's medium supplemented with 10% fetal bovine serum, 2 mM glutamine, and penicillin/streptomycin at 37° C., 5% CO2.
ChIP assays were performed on cell lysates as previously described.31,32,76 Briefly, Neuro 2a cells, untreated or treated with 5 mM GD3 or GM1 for 24 h, were incubated in 1% PFA for 10 min at ambient temperature to crosslink the interacting partners. Cells with the cross-linked complexes were subjected to lysis by sonication with six 20-s pulses at the power scale 7 controlled by a sonicator (Sonic dismembrator model 100, Fisher Scientific). After centrifugation at 15,000×g for 10 min, the supernatants were collected for the following experiments. Immunoprecipitation was carried out with the following specific antibodies bound on protein G-conjugated magnetic beads (Millipore): anti-acetylated histone H3 (Millipore), anti-Nurr1 (R&D Systems), or anti-PITX3 (Thermo Fisher Scientific) antibodies. The amounts of the co-precipitated DNA fragments of TH promoter (+0), the Nurr1 binding site on the TH promoter (TH-NBS), and the PITX3 binding site on TH promoter (TH-PBS) were analyzed by qPCR. After normalization against GAPDH, the value of no treated cells was defined as 1.0. The following primers were used: TH forward, 5′-[…]-3′ (SEQ ID NO:5), reverse, 5′-[…]-3′ (SEQ ID NO:6); TH NBS forward, 5′-[…]-3′ (SEQ ID NO:7), reverse, 5′-[…]-3′ (SEQ ID NO:8); TH PBS forward, 5′-[…]-3′ (SEQ ID NO:9), reverse, 5′-[…]-3′ (SEQ ID NO:10); GAPDH forward, 5′-[…]-3′ (SEQ ID NO:11), reverse, 5′-TCAGTTCGGAG CCCACACGC-3′ (SEQ ID NO:12).

Neuro 2a cells = test: TH mRNA expression in Neuro 2a cells (qPCR); format: cell-based, mouse; conditions: 5 mM ganglioside, 24 h
Method: as §2
Total RNA samples were isolated from substantia nigra of mouse brains or cultured Neuro 2a cells using TRIzol reagent (Life Technologies from Thermo Fisher Scientific). Neuro 2a cells were untreated or treated with 5 mM GD3 or GM1 in B27-supplemented Neuro-basal-A medium for 24 h. cDNAs were synthesized based on the total RNAs as templates using MultiScribe reverse transcriptase (Applied Biosystems, Waltham, MA, USA). qPCR was performed with run RT2 SYBR Green qPCR master mix (QIAGEN, Hilden, Germany) on the CFX96 system (Bio-Rad, Hercules, CA, USA). The relative expression levels of TH were normalized to the actin transcript level. The normalized value from control (WT+saline, or no treated cells) is defined as 1.0. The following primers were used: TH forward, 5′-CACTATGCCCACCCCCAG-3′ (SEQ ID NO:1), reverse: 5′-CGCCGTCCAATGAACCTT-3′ (SEQ ID NO:2); actin forward, 5′-[…]-3′ (SEQ ID NO:3), reverse, 5′-[…]-3′ (SEQ ID NO:4).

GM2S = GM2S gene expression in PD mouse brain; format: in vivo; conditions: intranasal 5 mg/kg/day for 28 days
Method: as §1

[5] = tested on: tyrosine hydroxylase (TH); test: TH expression at substantia nigra in PD mouse brain; format: in vivo; conditions: intranasal 5 mg/kg/day for 28 days
Method: as §1

Nurr1 = test: Expression and nuclear localization of Nurr1 in substantia nigra pars compacta of A53T PD mouse; format: in vivo; conditions: intranasal 5 mg/kg/day for 28 days
Method: as §1

| Substance | bone area (5XFAD mice [1]) | bone mineral content (5XFAD mice [1]) | bone mineral density (5XFAD mice [1]) | memory function (exploration time of novel object) (5XFAD mice [2]) | hippocampal NSC (Sox2 positive cell) number [3] | NSC pools in DG and SVZ (NSC pools in DG and SVZ) | SOX2-expressing cells in DG (5XFAD mouse brain) | VDAC1 expression (VDAC1) | olfactory function (time to uncover the food pellet) (5XFAD mice [4]) | aSyn levels / aSyn accumulation (aSyn) | TH expression in substantia nigra of GM2S-KO mouse (TH) | BrdU+/doublecortin+ (DCX+) newly generated immature neurons (5XFAD mouse brain) | acetylated histone H3 on TH gene promoter (ChIP) (TH gene promoter; anti-AcH3) | recruitment of Nurr1 on the TH promoter region (ChIP) (TH gene promoter; anti-Nurr1) | recruitment of Pitx3 on the TH promoter (ChIP) (TH gene promoter; anti-Pitx3) | TH expression (mRNA) (Neuro 2a cells) | expression of GM2S (GM2S) | TH expression at substantia nigra [5] | expression and nuclear localization of Nurr1 (Nurr1) |
| --- | --- | --- | --- | --- | --- | --- | --- | --- | --- | --- | --- | --- | --- | --- | --- | --- | --- | --- | --- |
| monosialodihexosylganglioside [GD3] | increased | increased | increased | increased memory function | partially restored hippocampal NSC (Sox2 positive cell) number | augments NSC pools in DG and SVZ | augments self-renewal and multipotent marker, SOX2-expressing cells | significantly enhance the expression | could not enhance olfactory function | partially inhibits | – | – | – | – | – | – | – | – | – |
| monosialotetrahexosylganglioside [GM1] | increased | increased | increased | increased memory function | – | – | – | significantly enhance the expression | enhance olfactory function | strongly inhibits; also recorded: reduced aSyn levels | restore the normal TH expression | increases BrdU+/doublecortin+ (DCX+) newly generated immature neurons | augmentation of acetylated histone H3 | remarkably recruited | also recruited Pitx3 | dramatically increased the TH expression | promoted expression of GM2S | dramatically restored TH expression | restored |
